# Columns and labels:
# goosegrass = experiment: Test D goosegrass; assay type: in vivo, Eleusine indica; details: Postemergence, 0 to 100 scale
# Johnson grass = experiment: Test D Johnson grass; assay type: in vivo, Sorghum halepense; details: Postemergence, 0 to 100 scale
# Alexandergrass = experiment: Test D Alexandergrass; assay type: in vivo, Brachiaria plantaginea; details: Postemergence
# Spanishneedles = experiment: Test D Spanishneedles; assay type: in vivo, Bidens bipinnata; details: Postemergence, 0 to 100 scale; for Spanishneedles plant response rating: 0 no injury, 100 complete control
# common ragweed = experiment: Test D common ragweed; assay type: in vivo, Ambrosia elatior; details: Postemergence, 0 to 100 scale
# [1] = Rate 64 g/ha, 0 no injury, 100 complete control
# [2] = Rate 125 g/ha, 0 no injury, 100 complete control
compound,measurement,setting,value
CC(C)N(C(=O)n1oc(=O)n(C2CC2)c1=O)c1ccc(F)cc1F [Compound 299],"Plant response rating, Goosegrass",goosegrass; [1],90
same,"Plant response rating, Goosegrass",goosegrass; [2],100
same,"Plant response rating, Goosegrass",goosegrass; Rate 250 g/ha,100
same,"Plant response rating, Goosegrass",goosegrass; Rate 500 g/ha,100
same,Plant response rating Johnsongrass,Johnson grass; [1],0
same,Plant response rating Johnsongrass,Johnson grass; [2],60
same,Plant response rating Johnsongrass,Johnson grass; Rate 250 g/ha,100
same,Plant response rating Johnsongrass,Johnson grass; Rate 500 g/ha,100
same,"Plant response rating, Alexandergrass","Alexandergrass; Rate 64 g/ha, 0 to 100 scale, 0 no injury, 100 complete control",90
same,"Plant response rating, Alexandergrass","Alexandergrass; Rate 125 g/ha, 0 to 100 scale, 0 no injury, 100 complete control",100
same,"Plant response rating, Alexandergrass","Alexandergrass; Rate 250 g/ha, 0 to 100 scale",100
same,"Plant response rating, Alexandergrass","Alexandergrass; Rate 500 g/ha, 0 to 100 scale (0 no injury, 100 complete control)",100
same,"Plant response rating, Alexandergrass","Alexandergrass; Rate 500 g/ha, 0 to 100 scale",100
same,Spanishneedles plant response rating,Spanishneedles; Rate 64 g/ha,0
same,Spanishneedles plant response rating,Spanishneedles; Rate 125 g/ha,0
same,"Plant response rating, Spanishneedles",Spanishneedles; Rate 250 g/ha,20
same,"Plant response rating, Spanishneedles",Spanishneedles; Rate 500 g/ha,100
same,"Plant response rating, C. ragweed",common ragweed; [1],100
same,"Plant response rating, C. ragweed",common ragweed; [2],50
same,"Plant response rating, C. ragweed",common ragweed; Rate 250 g/ha,100
same,"Plant response rating, C. ragweed",common ragweed; Rate 500 g/ha,100

# From US6737383B1, “Herbicidal oxadiazolidines” (priority 1999, dated 2004)
